Reference: US6489324B2, “Piperazine compounds as inhibitors of MMP or TNF” (Fujisawa Pharmaceutical Co., Ltd., priority 1996, dated 2002)

Biological target: T1, Human collagenase (Homo sapiens, UniProt P03956)
T1 construct: endogenous in cells; host or cells: human skin fibroblasts stimulated with interleukin-1β
T1 sequence (P03956 100-469): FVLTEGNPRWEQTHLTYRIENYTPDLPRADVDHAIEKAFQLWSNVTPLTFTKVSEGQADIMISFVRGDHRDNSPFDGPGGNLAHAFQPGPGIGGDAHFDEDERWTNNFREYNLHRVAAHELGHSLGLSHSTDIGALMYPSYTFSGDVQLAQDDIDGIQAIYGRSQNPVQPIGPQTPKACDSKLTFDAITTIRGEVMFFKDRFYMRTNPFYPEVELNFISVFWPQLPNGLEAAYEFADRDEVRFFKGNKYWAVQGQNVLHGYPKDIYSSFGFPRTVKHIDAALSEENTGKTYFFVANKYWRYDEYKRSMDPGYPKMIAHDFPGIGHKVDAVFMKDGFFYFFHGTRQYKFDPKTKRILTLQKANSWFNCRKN
Assay: Inhibitory Activity of Collagenase
Format: biochemical
Details: at 1 × 10^−6M; activated collagenase from human skin fibroblast culture medium, FTTC-labeled calf skin type I collagen, 37° C., 120 minutes
Description: Human collagenase was prepared from the culture medium of human skin fibroblast stimulated with interleukin-1β (1 ng/ml). Latent collagenase was activated by incubation with trypsin (200 μg/ml) at 37° C. for 60 minutes and the reaction was stopped by adding soybean trypsin inhibitor (800 μg/ml). Collagenase activity was determined using FTTC-labeled calf skin type I collagen. FTTC-collagen (2.5 mg/ml) was incubated at 37° C. for 120 minutes with the activated collagenase and test compound in 50 mM Tris buffer (containing 5 mM CaCl2, 200 mM NaCl and 0.02% NaN3, pH 7.5). After stopping the enzyme reaction by adding the equal volume of 70% ethanol-200 mM Tris buffer (pH 9.5), the reaction mixture was centrifuged, and collagenase activity was estimated by measuring the fluorescence intensity of supernatant at 495 nm (excitation) and 520 nm (emission).
`CS(=O)(=O)N1CCN(S(=O)(=O)c2ccc([N+](=O)[O-])cc2)[C@@H](C(=O)NO)C1` [Example 5, (2R)-1-(4-nitrobenzenesulfonyl)-4-methanesulfonylpiperazine-2-(N-hydroxy)carboxamide] showed an Inhibitory activity of 95.3% at 1 × 10^−6M.

Test system: not given
Assay: not given
Details: not given
In the case of `CS(=O)(=O)N1CCN(S(=O)(=O)c2ccc(-c3cccs3)cc2)[C@@H](C(=O)NOC2CCCCO2)C1` (stereo partly drawn) [Example 61, (2R)-4-Methanesulfonyl-1-[4-(thiophen-2-yl)benzenesulfonyl]-N-(2-tetrahydropyranyloxy)-2-piperazinecarboxamide], the melting point was 194 to 195 °C. With `O=C(NO)[C@H]1CN(S(=O)(=O)CCc2ccccn2)CCN1S(=O)(=O)c1ccc(-c2ccccc2)s1` [Example 106, (2R)-N-Hydroxy-1-(5-phenylthiophene-2-sulfonyl)-4-[2-(2-pyridyl)-ethanesulfonyl]-2-piperazinecarboxamide] the melting point was 170 to 174 °C. Work on `O=C(NO)[C@H]1CN(C(=O)Nc2ccccc2)CCN1S(=O)(=O)c1ccc(-c2ccc(F)cc2)s1` [Example 108, (2R)-1-[5-(4-Fluorophenyl)thiophene-2-sulfonyl]-N-hydroxy-4-[(N-phenyl)aminocarbonyl]-2-piperazinecarboxamide] yielded a melting point of 187 to 188 °C. With `O=C(NO)[C@H]1CN(C(=O)NC2CCCCC2)CCN1S(=O)(=O)c1ccc(-c2ccc(F)cc2)s1` [Example 109, (2R)-4-[(N-Cyclohexyl)aminocarbonyl]-1-[5-(4-fluorophenyl)-thiophene-2-sulfonyl]-N-hydroxy-2-piperazinecarboxamide] the melting point was 111 to 123 °C. Molecule `O=C(NO)[C@H]1CN(S(=O)(=O)c2ccc(-c3ccon3)s2)CCN1S(=O)(=O)c1ccc(-c2ccccc2)s1` [Example 139, (2R)-N-Hydroxy-4-[5-(isoxazol-3-yl)thiophene-2-sulfonyl]1-(5-phenylthiophene-2-sulfonyl)-2-piperazinecarboxamide] has a melting point of 204 °C. In the case of `CCN(C)S(=O)(=O)[C@@]1(C(=O)NO)CNCCN1S(=O)(=O)c1ccc(-c2ccc(Cl)cc2)s1` [Example 162, (2R)-1-[5-(4-Chlorophenyl)thiophene-2-sulfonyl]-N-hydroxy-2-(N-methylethylaminosulfonyl)-2-piperazinecarboxamide], the melting point was 170 to 172 °C. `CN(C)S(=O)(=O)N1CCN(S(=O)(=O)c2ccc(-c3ccc(CC#N)cc3)s2)[C@@H](C(=O)NO)C1` [Example 173, (2R)-1-[5-(4-Cyanomethylphenyl)thiophene-2-sulfonyl)-4-(N,N-dimethylaminosulfonyl)-N-hydroxy-2-piperazinecarboxamide] gave a melting point of 170 to 172 °C. For `CN(C)S(=O)(=O)N1CCN(S(=O)(=O)c2ccc(Oc3ccccc3)cc2)[C@@H](C(=O)NO)C1` [Example 176, (2R)-4-(N,N-Dimethylaminosulfonyl)-N-hydroxy-1-(4-phenoxybenzenesulfonyl)-2-piperazinecarboxamide], the melting point was 153 to 155 °C. `CS(=O)(=O)NCCS(=O)(=O)N1CCN(S(=O)(=O)c2ccc(-c3ccc(C(F)(F)F)cc3)s2)[C@@H](C(=O)NO)C1` [Example 181, (2R)-N-Hydroxy-4-(2-(methanesulfonylamino)ethanesulfonyl]-1-[5-(4-trifluoromethylphenyl)thiophene-2-sulfonyl]-2-piperazinecarboxamide] showed a melting point of 105 to 108 °C. Molecule `CS(=O)(=O)NCCS(=O)(=O)N1CCN(S(=O)(=O)c2ccc(-c3ccc(Cl)cc3)s2)[C@@H](C(=O)NO)C1` [Example 182, (2R)-1-[5-(4-Chlorophenyl)thiophene-2-sulfonyl]-N-hydroxy-4-[2-(methanesulfonylamino)ethanesulfonyl]-2-piperazinecarboxamide] has a melting point of 118 to 122 °C. `CS(=O)(=O)N1CCN(S(=O)(=O)/C=C/c2ccccc2)[C@@H](C(=O)NO)C1` [Example 189, (2R)-N-Hydroxy-1-(2-phenyl-2-trans-ethenylsulfonyl)-4-methanesulfonyl-2-piperazinecarboxamide] gave a melting point of 94 to 99 °C.
